We go through 36 compounds from patent US7723527B2 (Janssen Pharmaceutica NV, priority 2003, dated 2010).

Molecules are shown by their SMILES.

For this assay, the target named is T1, human histamine H4 receptor (Homo sapiens, UniProt Q9H3N8).
T1 construct: expressed in transfected cells; host or cells: SK-N-MC cells or COS7 cells, transiently transfected; cell membranes used
T1 sequence (Q9H3N8 whole entry): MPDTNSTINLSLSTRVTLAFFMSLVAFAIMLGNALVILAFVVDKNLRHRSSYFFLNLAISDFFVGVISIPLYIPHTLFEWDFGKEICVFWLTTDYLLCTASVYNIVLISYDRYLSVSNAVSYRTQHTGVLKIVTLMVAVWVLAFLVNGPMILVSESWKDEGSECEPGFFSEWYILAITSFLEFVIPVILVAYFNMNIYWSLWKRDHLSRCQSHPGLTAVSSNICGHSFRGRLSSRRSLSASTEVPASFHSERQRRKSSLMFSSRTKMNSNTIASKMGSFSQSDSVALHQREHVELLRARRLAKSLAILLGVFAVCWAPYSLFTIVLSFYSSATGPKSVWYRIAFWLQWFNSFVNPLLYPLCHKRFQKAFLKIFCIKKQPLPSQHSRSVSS
Nature of the assay: Binding assay on recombinant human histamine H4 receptor (3H-histamine displacement). The following applies: competition binding with 3H-histamine; membranes of SK-N-MC or COS7 cells expressing human H4 receptor; Cheng-Prusoff, KD 5 nM, ligand 5 nM. In a few lines:
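Membranes from SK-N-MC or COS7 cells transiently transfected with human H4R, incubated with ^3H-histamine (5-70 nM) at room temperature for 45 min, nonspecific binding with 10,000 nM histamine. Filtration and scintillation counting; compound affinity from displacement of ^3H-ligand across varying concentrations.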
With `Cc1ccc2[nH]c(-c3ccnc(OCCCCN4CCN(C)CC4)c3)nc2c1C` [Example 140, 4,5-Dimethyl-2-{2-[4-(4-methyl-piperazin-1-yl)-butoxy]-pyridin-4-yl}-1H-benzoimidazole], the Ki came to 144 nM. As to `Cc1c(F)ccc2[nH]c(-c3ccnc(OCCCCN4CCN(C)CC4)c3)nc12` [Example 141, 5-Fluoro-4-methyl-2-{2-[4-(4-methyl-piperazin-1-yl)-butoxy]-pyridin-4-yl}-1H-benzoimidazole], the Ki stood at 60 nM. In the case of `Cc1cc(Cl)cc2[nH]c(-c3ccnc(OCCCCN4CCN(C)CC4)c3)nc12` [Example 142, 6-Chloro-4-methyl-2-{2-[4-(4-methyl-piperazin-1-yl)-butoxy]-pyridin-4-yl}-1H-benzoimidazole], the Ki is 73 nM.

In the case of `Cc1c(F)ccc2[nH]c(-c3ccnc(OCCCCN4CCCN(C)CC4)c3)nc12` [Example 143, 5-Fluoro-4-methyl-2-{2-[4-(4-methyl-[1,4]diazepan-1-yl)-butoxy]-pyridin-4-yl}-1H-benzoimidazole], the Ki came out at 6 nM. With `Cc1ccc2[nH]c(-c3ccnc(OCCCCN4CCCN(C)CC4)c3)nc2c1C` [Example 144, 4,5-Dimethyl-2-{2-[4-(4-methyl-[1,4]diazepan-1-yl)-butoxy]-pyridin-4-yl}-1H-benzoimidazole], the Ki amounted to 8 nM.

Take `Cc1cc(C)c2nc(-c3ccnc(OCCCCC4CCN(C)CC4)c3)[nH]c2c1` [Example 145, 4,6-Dimethyl-2-{2-[4-(1-methyl-piperidin-4-yl)-butoxy]-pyridin-4-yl}-1H-benzoimidazole]: the Ki was 3 nM. With `Cc1cccc2[nH]c(-c3ccnc(OCCCCC4CCN(C)CC4)c3)nc12` [Example 146, 4-Methyl-2-{2-[4-(1-methyl-piperidin-4-yl)-butoxy]-pyridin-4-yl}-1H-benzoimidazole] the figure was 5 nM; with `Cc1c(F)ccc2[nH]c(-c3ccnc(OCCCCC4CCN(C)CC4)c3)nc12` [Example 147, 5-Fluoro-4-methyl-2-{2-[4-(1-methyl-piperidin-4-yl)-butoxy]-pyridin-4-yl}-1H-benzoimidazole], 8 nM; with `CN1CCC(CCCCOc2cc(-c3nc4c(Cl)cccc4[nH]3)ccn2)CC1` [Example 148, 4-Chloro-2-{2-[4-(1-methyl-piperidin-4-yl)-butoxy]-pyridin-4-yl}-1H-benzoimidazole], 17 nM. On to `Cc1ccc2[nH]c(-c3ccnc(OCCCCC4CCN(C)CC4)c3)nc2c1C` [Example 149, 4,5-Dimethyl-2-{2-[4-(1-methyl-piperidin-4-yl)-butoxy]-pyridin-4-yl}-1H-benzoimidazole], for which the Ki was determined as 4 nM. Regarding `Cc1cc(Cl)cc2[nH]c(-c3ccnc(OCCCCC4CCN(C)CC4)c3)nc12` [Example 150, 6-Chloro-4-methyl-2-{2-[4-(1-methyl-piperidin-4-yl)-butoxy]-pyridin-4-yl}-1H-benzoimidazole], the Ki came to 19 nM.

`Cc1c(Cl)ccc2[nH]c(-c3ccnc(OCCCCC4CCN(C)CC4)c3)nc12` [Example 151, 5-Chloro-4-methyl-2-{2-[4-(1-methyl-piperidin-4-yl)-butoxy]-pyridin-4-yl}-1H-benzoimidazole]: the Ki worked out at 21 nM. With `CC(C)(C)c1ccc2[nH]c(-c3ccnc(OCCCCC4CCNCC4)c3)nc2c1` [Example 152, 5-tert-Butyl-2-[2-(4-piperidin-4-yl-butoxy)-pyridin-4-yl]-1H-benzoimidazole], the Ki turned out to be 117 nM. As to `Cc1cc(C)c2nc(-c3ccnc(OCCCCC4CCNCC4)c3)[nH]c2c1` [Example 153, 4,6-Dimethyl-2-[2-(4-piperidin-4-yl-butoxy)-pyridin-4-yl]-1H-benzoimidazole], the Ki is 179 nM. The same measure for `CCN1CCC(CCCCOc2cc(-c3nc4c(C)c(C)ccc4[nH]3)ccn2)CC1` [Example 154, 2-{2-[4-(1-Ethyl-piperidin-4-yl)-butoxy]-pyridin-4-yl}-4,5-dimethyl-1H-benzoimidazole]: 111 nM; for `Cc1cc(C)c2nc(-c3ccnc(OCCCCC4CCN(C)CC4)c3C)[nH]c2c1` [Example 155, 4,6-Dimethyl-2-{3-methyl-2-[4-(1-methyl-piperidin-4-yl)-butoxy]-pyridin-4-yl}-1H-benzoimidazole]: 13 nM; for `Cc1c(-c2nc3c(C)cccc3[nH]2)ccnc1OCCCCC1CCN(C)CC1` [Example 156, 4-Methyl-2-{3-methyl-2-[4-(1-methyl-piperidin-4-yl)-butoxy]-pyridin-4-yl}-1H-benzoimidazole]: 20 nM.

On to `Cc1c(-c2nc3c(C)cc(Cl)cc3[nH]2)ccnc1OCCCCC1CCN(C)CC1` [Example 157, 6-Chloro-4-methyl-2-{3-methyl-2-[4-(1-methyl-piperidin-4-yl)-butoxy]-pyridin-4-yl}-1H-benzoimidazole], for which the Ki was found to be 28 nM. Take `Cc1cccc2[nH]c(-c3ccnc(OCCCCC4CCN(C)CC4)c3Cl)nc12` [Example 158, 2-{3-Chloro-2-[4-(1-methyl-piperidin-4-yl)-butoxy]-pyridin-4-yl}-4-methyl-1H-benzoimidazole]: the Ki worked out at 21 nM.

For `Cc1ccc2[nH]c(-c3ccnc(OCCCCC4CCN(C)CC4)c3Cl)nc2c1C` [Example 159, 2-{3-Chloro-2-[4-(1-methyl-piperidin-4-yl)-butoxy]-pyridin-4-yl}-4,5-dimethyl-1H-benzoimidazole], the Ki was 19 nM. With `CN1CCC(CCCCOc2nccc(-c3nc4c(Cl)cccc4[nH]3)c2Cl)CC1` [Example 160, 4-Chloro-2-{3-chloro-2-[4-(1-methyl-piperidin-4-yl)-butoxy]-pyridin-4-yl}-1H-benzoimidazole], the Ki was determined as 53 nM. Consider `Cc1c(F)ccc2[nH]c(-c3ccnc(OCCCCC4CCN(C)CC4)c3Cl)nc12` [Example 161, 2-{3-Chloro-2-[4-(1-methyl-piperidin-4-yl)-butoxy]-pyridin-4-yl}-5-fluoro-4-methyl-1H-benzoimidazole], for which the Ki came to 20 nM. Regarding `Cc1cc(C)c2nc(-c3ccnc(OCCCCC4CCN(C)CC4)c3Cl)[nH]c2c1` [Example 162, 2-{3-Chloro-2-[4-(1-methyl-piperidin-4-yl)-butoxy]-pyridin-4-yl}-4,6-dimethyl-1H-benzoimidazole], the Ki was found to be 15 nM. Take `Cc1cc(Cl)cc2[nH]c(-c3ccnc(OCCCCC4CCN(C)CC4)c3Cl)nc12` [Example 163, 6-Chloro-2-{3-chloro-2-[4-(1-methyl-piperidin-4-yl)-butoxy]-pyridin-4-yl}-4-methyl-1H-benzoimidazole]: the Ki came out at 12 nM.

With `Cc1c(Cl)ccc2[nH]c(-c3ccnc(OCCCCC4CCN(C)CC4)c3Cl)nc12` [Example 164, 5-Chloro-2-{3-chloro-2-[4-(1-methyl-piperidin-4-yl)-butoxy]-pyridin-4-yl}-4-methyl-1H-benzoimidazole], the Ki stood at 7 nM. With `Cc1cnc(OCCCCC2CCN(C)CC2)cc1-c1nc2c(C)c(F)ccc2[nH]1` [Example 165, 5-Fluoro-4-methyl-2-{5-methyl-2-[4-(1-methyl-piperidin-4-yl)-butoxy]-pyridin-4-yl}-1H-benzoimidazole] the figure was 3 nM; with `Cc1cnc(OCCCCC2CCN(C)CC2)cc1-c1nc2cc(Cl)c(F)cc2[nH]1` [Example 166, 5-Chloro-6-fluoro-2-{5-methyl-2-[4-(1-methyl-piperidin-4-yl)-butoxy]-pyridin-4-yl}-1H-benzoimidazole], 6 nM; with `Cc1cnc(OCCCCC2CCN(C)CC2)cc1-c1nc2cc(C(C)(C)C)ccc2[nH]1` [Example 167, 5-tert-Butyl-2-{5-methyl-2-[4-(1-methyl-piperidin-4-yl)-butoxy]-pyridin-4-yl}-1H-benzoimidazole], 4 nM. In the case of `Cc1cnc(OCCCCC2CCN(C)CC2)cc1-c1nc2c(C)c(C)ccc2[nH]1` [Example 168, 4,5-Dimethyl-2-{5-methyl-2-[4-(1-methyl-piperidin-4-yl)-butoxy]-pyridin-4-yl}-1H-benzoimidazole], the Ki turned out to be 6 nM. The same measure for `Cc1cc(C)c2nc(-c3cc(OCCCCC4CCN(C)CC4)ncc3Cl)[nH]c2c1` [Example 169, 2-{5-Chloro-2-[4-(1-methyl-piperidin-4-yl)-butoxy]-pyridin-4-yl}-4,6-dimethyl-1H-benzoimidazole]: 1 nM; for `CN1CCC(CCCCOc2cc(-c3nc4cc(Cl)ccc4[nH]3)c(Cl)cn2)CC1` [Example 170, 5-Chloro-2-{5-chloro-2-[4-(1-methyl-piperidin-4-yl)-butoxy]-pyridin-4-yl}-1H-benzoimidazole]: 5 nM.

Take `CN1CCC(CCCCOc2cc(-c3nc4cc(Cl)c(F)cc4[nH]3)c(Cl)cn2)CC1` [Example 171, 5-Chloro-2-{5-chloro-2-[4-(1-methyl-piperidin-4-yl)-butoxy]-pyridin-4-yl}-6-fluoro-1H-benzoimidazole]: the inhibitory constant (Ki) was determined as 12 nM.

Regarding `CN1CCC(CCCCOc2cc(-c3nc4cc(C(C)(C)C)ccc4[nH]3)c(Cl)cn2)CC1` [Example 172, 5-tert-Butyl-2-{5-chloro-2-[4-(1-methyl-piperidin-4-yl)-butoxy]-pyridin-4-yl}-1H-benzoimidazole], the Ki came to 1 nM.

With `CN1CCC(CCCCOc2cc(-c3nc4c(Cl)cccc4[nH]3)c(Br)cn2)CC1` [Example 173, 2-{5-Bromo-2-[4-(1-methyl-piperidin-4-yl)-butoxy]-pyridin-4-yl}-4-chloro-1H-benzoimidazole], the Ki amounted to 21 nM.

As for `CN1CCC(CCCCOc2cc(-c3nc4cc(Cl)c(F)cc4[nH]3)c(Br)cn2)CC1` [Example 174, 2-{5-Bromo-2-[4-(1-methyl-piperidin-4-yl)-butoxy]-pyridin-4-yl}-5-chloro-6-fluoro-1H-benzoimidazole], the Ki is 31 nM. In the case of `CN1CCC(CCCCOc2cc(-c3nc4cc(Cl)ccc4[nH]3)c(Br)cn2)CC1` [Example 175, 2-{5-Bromo-2-[4-(1-methyl-piperidin-4-yl)-butoxy]-pyridin-4-yl}-5-chloro-1H-benzoimidazole], the Ki was 6 nM.
